Source: US20210145842A1, “NEW THERAPEUTIC USES” (NOVARTIS AG, priority 2018, published 2021)
Several values for one entry are separate records, joined by “and”; a condition that tells them apart may be missing. Equal entries are not always repeated. Where two headings read alike, the source gives them in different places.

What was measured:
[1] = system: patients with EGFR T790M+ NSCLC; conditions: cited from earlier work; for hazard ratio for PFS: 95% CI
[2] = system: patients with EGFR mutant NSCLC; conditions: cited from earlier work
patients with NSCLC = conditions: in vivo; cited from earlier work
[3] = system: patients with EGFR T790M-mutant NSCLC who were third-generation EGFR TKI naïve
Procedure: Patients were screened for eligibility across six subgroups according to EGFR mutation status and prior therapy, and treated with nazartinib 75-350 mg (capsule or tablet formulation) orally, once daily (QD), on a continuous 28-day dosing schedule. The primary objective of the Phase I part was to determine the maximum tolerated dose and/or recommended Phase II dose (RP2D).
This was a Phase I/II, multicenter, open-label study of nazartinib in patients with locally advanced/metastatic EGFR-mutant NSCLC.
Nazartinib was administered orally, once daily (QD), on a continuous, 28-day cycle dosing schedule. The starting dose for the Phase I part was 75 mg in capsule formulation. Nazartinib in tablet formulation was also introduced during Phase I. Patients were treated across the following QD dose groups: 75 mg, 100 mg, 150 mg, 200 mg, 225 mg, 300 mg, and 350 mg. Initial cohorts consisted of 1-6 patients.
Patients treated with capsule or with tablet at the same dose level were pooled together into a single treatment group for safety and efficacy analyses. The Full Analysis Set (FAS) consists of all patients who received ≥1 dose of the study drug. Efficacy analyses were performed on all patients in the FAS who had baseline and post-baseline tumor assessment data or who had discontinued prior to post-baseline tumor assessment, and excluded patients with tumors that were wild-type at EGFR T790 or who had received prior third-generation EGFR TKIs, unless otherwise noted.
Duration of response (DoR) and PFS were described using the Kaplan-Meier method.

[4] = Distribution of nazartinib to the brain in a preclinical model; format: in vivo
[5] = system: patients with advanced EGFR-mutant NSCLC harbouring activating EGFR L858R and/or ex19del mutations
[6] = system: EGFR mutant (L858R, ex19del and T790M) cancer models; conditions: cited from earlier work
patients [7] = conditions: human, in vivo; cited from earlier work
[8] = system: patients with metastatic NSCLC containing EGFR ex19del or L858R substitution mutations; conditions: EURTAC; erlotinib 150 mg once daily; cited from earlier work
patients [9] = conditions: pooled analysis; cited from earlier work
[10] = Brain metastases absent at baseline, 14 evaluable patients, preliminary data
[11] = Brain metastases present at baseline, 10 evaluable patients, preliminary data

C=CC(=O)Nc1cc(Nc2nccc(-c3cn(C)c4ccccc34)n2)c(OC)cc1N(C)CCN(C)C [osimertinib]
median duration of response ([1]; AURA3): 9.7 month
median PFS ([1]; osimertinib arm of AURA3): 10.1 months
hazard ratio for PFS ([1]; overall population, 0.23-0.41): 0.30
hazard ratio for PFS ([1]; patients with CNS metastases, 0.21-0.49): 0.32
investigator reported median progression-free survival ([2]; FLAURA first-line): 18.9 months
median duration of response ([2]; FLAURA first-line): 17.2 months
objective response rate (ORR) ([2]; FLAURA first-line): 80%
adverse event: diarrhea ([2]; any cause): 58%
adverse event: dry skin ([2]; any cause): 36%
adverse event: rash or acne ([2]; any cause): 58%
AEs of grade 3 or higher ([2]; in vivo): 34%
survival rate at 18 months ([2]; interim analysis): 83%
HR for disease progression or death ([2]; osimertinib vs standard EGFR-TKIs, 95% CI 0.37 to 0.57, P<0.001): 0.46
hazard ratio for death ([2]; osimertinib vs standard EGFR-TKIs, 95% CI, 0.45 to 0.88, P=0.007): 0.63
odds ratio for ORR ([2]; osimertinib vs standard EGFR-TKIs, 95% CI, 0.85 to 1.90, P=0.24): 1.27
PFS obtained following treatment (patients with NSCLC): 10.2 months

Cc1cc(C(=O)Nc2nc3cccc(Cl)c3n2[C@@H]2CCCCN(C(=O)/C=C/CN(C)C)C2)ccn1 [nazartinib, (R,E)-N-(7-chloro-1-(1-(4-(dimethylamino)but-2-enoyl)azepan-3-yl)-1H-benzo [d]imidazol-2-yl)-2-methylisonicotinamide]
Among patients who progressed: Both A and B (A: progression in brain, B: outside of brain, at first PD) ([3]; 75 mg QD, N = 12): 1 patients
Among patients who progressed: Only A, not B (A: progression in brain, B: outside of brain, at first PD) ([3]; 75 mg QD, N = 12): 1 patients
Among patients with baseline brain metastasis who progressed: Both A and B (A: progression in brain, B: outside of brain, at first PD) ([3]; 100 mg QD, N = 34): 2 patients
Among patients with baseline brain metastasis who progressed: Only A, not B (A: progression in brain, B: outside of brain, at first PD) ([3]; 100 mg QD, N = 34): 1 patients
Best response of brain non-target lesions: Absent/normalized ([3]; 100 mg QD, N = 34): 1 patients
ORR ([3]; 150 mg QD dose level): 46%
Best response of brain non-target lesions: Absent/normalized ([3]; 150 mg QD, N = 68): 3 patients
Among patients who progressed: Only A, not B (A: progression in brain, B: outside of brain, at first PD) ([3]; 200 mg QD, N = 8): 1 patients
Among patients who progressed: Only B, not A (A: progression in brain, B: outside of brain, at first PD) ([3]; 200 mg QD, N = 8): 6 patients
HBV reactivation leading to hepatic failure and death ([3]; 225 mg QD): one
Among patients who progressed: Only B, not A (A: progression in brain, B: outside of brain, at first PD) ([3]; 225 mg QD, N = 24): 16 patients
Among patients with baseline brain metastasis who progressed: Only A, not B (A: progression in brain, B: outside of brain, at first PD) ([3]; 225 mg QD, N = 24): 1 patients
Among patients with baseline brain metastasis who progressed: Only B, not A (A: progression in brain, B: outside of brain, at first PD) ([3]; 225 mg QD, N = 24): 6 patients
Best response of brain non-target lesions: Absent/normalized ([3]; 225 mg QD, N = 24): 3 patients
best overall response rate across doses ([3]; 162 evaluable patients with EGFR T790M-positive tumors naïve to third-generation EGFR TKIs, 95% CI: 43-59): 51%
Among patients with baseline brain metastasis who progressed: Only A, not B (A: progression in brain, B: outside of brain, at first PD) ([3]; All patients, N = 162): five
Best response of brain non-target lesions: Absent/normalized ([3]; All patients, N = 162): 16% and 14%
median duration of response ([3]; across doses, EGFR T790M-positive, third-generation EGFR TKI naïve): 11.0 months
median progression-free survival (PFS) ([3]; across doses, 95% CI: 7.3-11.1): 9.1 months
most common adverse events ([3]; human, in vivo): rash, diarrhea, and pruritus
overall disease control rate (DCR) ([3]; patients with EGFR T790M-positive tumors naïve to third-generation EGFR TKIs): 89% and 87%
brain metastases at first post-baseline evaluation (single case) ([3]; person, EGFR ex19del/T790M NSCLC, numerous small brain metastases at baseline): no longer radiologically detectable
duration of overall partial response (single case) ([3]; person, EGFR ex19del/T790M NSCLC, numerous small brain metastases at baseline, no prior local therapy to the brain): 11.1 months
distribution to the brain [4]: minimal
6-month duration of response rate (DoR) ([5]; 150 mg once daily): 91%
6-month overall survival rate ([5]; 150 mg once daily): 95%
6-month progression-free survival rate ([5]; 150 mg once daily): 83%
disease control rate ([5]; 150 mg once daily): 93%
patients who achieved complete response ([5]; 150 mg once daily, 45 patients): One
ORR per RECIST v1.1 by BICR ([5]; 150 mg once daily, 45 patients, 95% CI 49%-78%): 64%
patients who demonstrated a response ([5]; 150 mg once daily, of 45 patients): Twenty-nine
Best overall response per BIRC: Progressive disease (PD) [5, 10]: 0 patients
Disease control rate (CR + PR + SD + NCRNPD) per BIRC [5, 10]: 14 patients
Overall response rate per BIRC [5, 10]: 11 patients
Best overall response per BIRC: Complete response (CR) [5, 11]: 0 patients
Best overall response per BIRC: Non-CR/non-PD (NCRNPD) [5, 11]: 0 patients
Disease control rate (CR + PR + SD + NCRNPD) per BIRC [5, 11]: 9 patients
Overall response rate per BIRC [5, 11]: 5 patients
patients who developed a new brain metastasis on study ([5]; of the 27 patients without baseline brain metastasis): One
responses ongoing at data cutoff ([5]; of the 29 responding patients, cutoff 22 Mar. 2018): 27 patients
brain post-baseline scan versus baseline by BIRC (single case) ([5]; person, Cycle 5 Day 1 (study day 113), no prior treatment for brain metastases): complete normalization of brain lesion
anti-tumor efficacy ([6]; several xenograft models): Dose-dependent anti-tumor efficacy
tolerability, body weight ([6]; xenograft models, efficacious doses): well tolerated with no body weight loss

COc1cc2ncnc(Nc3ccc(F)c(Cl)c3)c2cc1OCCCN1CCOCC1 [gefitinib]
patients who stopped therapy due to an adverse drug reaction (patients [7]): Approximately 3%
patients with a severe adverse drug reaction (grade 3 or 4) (patients [7]): Approximately 8%
PFS obtained following treatment (patients with NSCLC): 9.5 months

C#Cc1cccc(Nc2ncnc3cc(OCCOC)c(OCCOC)cc23)c1 [erlotinib]
median PFS as assessed by the investigator [8]: 9.7 months
ILD occurrence (patients [9]): 1.1%
PFS obtained following treatment (patients with NSCLC): 9.7 months
